The RepoRT retention time repository (doi:10.1016/j.scitotenv.2015.08.078)

Assay: RP, Waters ACQUITY UPLC BEH C18, 100 × 2.1 mm, 1.7 µm, 0.3 mL/min, estimated dead time 0.73 min; A: water + 0.1% formic acid, pH 3; B: methanol + 0.1% formic acid, pH 3; gradient (min/%B) 0/10 14/90 16/90 18/10
Conditions: stereoisomer not certain

| SMILES | LC retention time [min] |
| --- | --- |
| CCSC(=O)N(CC)C1CCCCC1 [Cycloate] | 12.3 |
| CCCC(=NOCC)C1=C(O)CC(C2CCCSC2)CC1=O (centres undefined) [Cycloxydime] | 11.3 |
| CCNC(=O)NC(=O)C(C#N)=NOC [Cymoxanil] | 5.24 |
| CC(C1CC1)C(O)(Cn1cncn1)c1ccc(Cl)cc1 (centres undefined) [Cyproconazole I] | 10.5 |
| Cc1cc(C2CC2)nc(Nc2ccccc2)n1 [Cyprodinil] | 10.7 |
| Nc1nc(N)nc(NC2CC2)n1 [Cyromazine] | 1.45 |
| Nc1ccc(S(=O)(=O)c2ccc(N)cc2)cc1 [Dapsone] | 3.17 |
| CC(C)Nc1nc(N)nc(Cl)n1 [Deetheylatrazine] | 6.06 |
| CC(C)(C)Nc1nc(N)[nH]c(=O)n1 [Deethyl-2-hydroxy-terbuthylazine] | 3.24 |
| CSc1nc(N)nc(NC(C)(C)C)n1 [Deethylterbutryn] | 9.3 |
| CC1(C)C(C=C(Br)Br)C1C(=O)OC(C#N)c1cccc(Oc2ccccc2)c1 (centres undefined) [Deltamethrin] | 14 |
| CCSCCSP(=O)(OC)OC [Demeton-S-methyl] | 7.56 |
| CC1=CC2OC3C(O)CC(C)(C34CO4)C2(CO)C(O)C1=O (centres undefined) [Deoxynivalenol] | 2.83 |
| O=C1CN=C(c2ccccc2F)c2cc(Cl)ccc2N1 [Desalkyl-flurazepam] | 10 |
| CCNc1nc(N)nc(Cl)n1 [Desisopropylatrazine] | 4.38 |
| CNc1nc(NC(C)C)nc(SC)n1 [Desmetryn] | 8.78 |
| CC(C)c1cc(Oc2ccccc2)cc(C(C)C)c1NC(=S)NC(C)(C)C [Diafenthiuron] | 13.7 |
| CN1C(=O)CN=C(c2ccccc2)c2cc(Cl)ccc21 [Diazepam] | 10.9 |
| CCOP(=S)(OCC)Oc1cc(C)nc(C(C)C)n1 [Diazinon] | 12.5 |
| CCOP(=S)(OCC)Oc1ccc(Cl)cc1Cl [Dichlofenthion] | 13.4 |
| CN(C)S(=O)(=O)N(SC(F)(Cl)Cl)c1ccccc1 [Dichlofluanid] | 10.8 |
| C=CCN(CC=C)C(=O)C(Cl)Cl [Dichlormid] | 7.52 |
| COP(=O)(OC)OC=C(Cl)Cl [Dichlorvos] | 7.31 |

| SMILES | LC retention time [min] |
| --- | --- |
| Cc1onc(-c2c(Cl)cccc2Cl)c1C(=O)NC1C(=O)N2C1SC(C)(C)C2C(=O)O (centres undefined) [Dicloxacillin] | 10.4 |
| CC=C(C(=CC)c1ccc(O)cc1)c1ccc(O)cc1 [Dienestrol] | 11.1 |
| CCOc1ccc(NC(=O)OC(C)C)cc1OCC [Diethofencarb] | 9.88 |
| CCOC(=O)c1ccccc1C(=O)OCC [Diethyl phthalate] | 9.3 |
| CCN(CC)C(=O)N1CCN(C)CC1 [Diethylcarbamazine] | 2.52 |
| CCC(=C(CC)c1ccc(O)cc1)c1ccc(O)cc1 [Diethylstilbestrol] | 10.9 |
| O=C(NC(=O)c1c(F)cccc1F)Nc1ccc(Cl)cc1 [Diflubenzuron] | 11.2 |
| O=C(Nc1ccc(F)cc1F)c1cccnc1Oc1cccc(C(F)(F)F)c1 [Diflufenican] | 12.7 |
| CN(C)C(=O)Nc1ccc(-n2nc(C(C)(C)C)oc2=O)c(Cl)c1 [Dimefuron] | 9.63 |
| CC(C)(SC(=O)N1CCCCC1)c1ccccc1 [Dimepiperate] | 12.3 |
| COCCN(C(=O)CCl)c1c(C)cccc1C [Dimethachlor] | 9.39 |
| CCNc1nc(NC(C)C(C)C)nc(SC)n1 (centres undefined) [Dimethametryn] | 11.4 |
| COCC(C)N(C(=O)CCl)c1c(C)csc1C (centres undefined) [Dimethenamid] | 10.1 |
| CNC(=O)CSP(=S)(OC)OC [Dimethoate] | 5.37 |
| Cc1ncc([N+](=O)[O-])n1C [Dimetridazole] | 2.68 |
| CC(C)(C)C(O)C(=Cc1ccc(Cl)cc1Cl)n1cncn1 (centres undefined) [Diniconazole] | 12.2 |
| CN(C)CCOC(c1ccccc1)c1ccccc1 [Diphenhydramine] | 7.71 |
| c1ccc(Nc2ccccc2)cc1 [Diphenylamine] | 10.5 |
| CCCOC(=O)c1ccccc1C(=O)OCCC [Dipropyl phthalate] | 11.1 |
| CCOP(=S)(OCC)SCCS(=O)(=O)CC [Disulfoton-sulfone] | 8.76 |
| CN(C)C(=O)Nc1ccc(Cl)c(Cl)c1 [Diuron] | 9.72 |
| CC1CN(C2CCCCCCCCCCC2)CC(C)O1 (centres undefined) [Dodemorph] | 13.4 |
| COC1CC(OC2C(C)OC(OC3C(C)=CCC4CC(CC5(C=CC(C)C(C6CCCCC6)O5)O4)OC(=O)C4C=C(C)C(O)C5OCC(=CC=CC3C)C45O)CC2OC)OC(C)C1O (centres undefined) [Doramectine] | 15.7 |

| SMILES | LC retention time [min] |
| --- | --- |
| CC1c2cccc(O)c2C(O)=C2C(=O)C3(O)C(O)=C(C(N)=O)C(=O)C(N(C)C)C3C(O)C21 (centres undefined) [Doxycycline] | 7.42 |
| CCOP(=S)(Oc1ccc([N+](=O)[O-])cc1)c1ccccc1 (centres undefined) [EPN] | 12.2 |
| CCOP(=O)(Sc1ccccc1)Sc1ccccc1 [Edifenphos] | 11.7 |
| CCC(C)C1OC2(C=CC1C)CC1CC(CC=C(C)C(OC3CC(OC)C(OC4CC(OC)C(NC)C(C)O4)C(C)O3)C(C)C=CC=C3COC4C(O)C(C)=CC(C(=O)O1)C34O)O2 (centres undefined) [Emamectin B1a] | 13.8 |
| CCOC(=O)C(CCc1ccccc1)NC(C)C(=O)N1CCCC1C(=O)O (centres undefined) [Enalapril] | 7.86 |
| CCN1CCN(c2cc3c(cc2F)c(=O)c(C(=O)O)cn3C2CC2)CC1 [Enrofloxacin] | 4.58 |
| CCC(C)C1OC2(C=CC1C)CC1CC(CC=C(C)C(OC3CC(OC)C(OC4CC(OC)C(NC(C)=O)C(C)O4)C(C)O3)C(C)C=CC=C3COC4C(O)C(C)=CC(C(=O)O1)C34O)O2 (centres undefined) [Eprinomectin] | 15.1 |
| CCC1OC(=O)C(C)C(OC2CC(C)(OC)C(O)C(C)O2)C(C)C(OC2OC(C)CC(N(C)C)C2O)C(C)(O)CC(C)C(=O)C(C)C(O)C1(C)O (centres undefined) [Erythromycin] | 9.41 |
| CCN(C(=O)SCc1ccccc1)C(C)C(C)C (centres undefined) [Esprocarb] | 12.8 |
| CCS(=O)(=O)Cc1ccccc1OC(=O)NC [Ethiofencarb sulfone] | 4.07 |
| CCS(=O)Cc1ccccc1OC(=O)NC (centres undefined) [Ethiofencarb sulfoxide] | 4.6 |
| CCSCc1ccccc1OC(=O)NC [Ethiofencarb] | 8.89 |
| CCOP(=S)(OCC)SCSP(=S)(OCC)OCC [Ethion] | 13.4 |
| CCCCc1c(C)nc(NCC)[nH]c1=O [Ethirimol] | 8.99 |
| CCOc1ccc(C(C)(C)COCc2cccc(Oc3ccccc3)c2)cc1 [Ethofenprox] | 15.1 |
| CCOC1Oc2ccc(OS(C)(=O)=O)cc2C1(C)C (centres undefined) [Ethofumesate] | 9.89 |
| CCCSP(=O)(OCC)SCCC [Ethoprophos] | 11.1 |
| CCOc1ccc2c(c1)C(C)=CC(C)(C)N2 [Ethoxyquin] | 9.64 |
| CCOc1ccccc1OS(=O)(=O)NC(=O)Nc1nc(OC)cc(OC)n1 [Ethoxysulfuron] | 8.41 |
| CCOc1cc(C(C)(C)C)ccc1C1COC(c2c(F)cccc2F)=N1 (centres undefined) [Etoxazole] | 13.5 |
| CCOc1cc(OP(=S)(OC)OC)nc(CC)n1 [Etrimfos] | 11.6 |
| CCOP(=O)(NC(C)C)Oc1ccc(SC)c(C)c1 (centres undefined) [Fenamiphos] | 11.3 |
| OC(c1ccc(Cl)cc1)(c1cncnc1)c1ccccc1Cl (centres undefined) [Fenarimol] | 11.6 |

| SMILES | LC retention time [min] |
| --- | --- |
| N#CC(CCc1ccc(Cl)cc1)(Cn1cncn1)c1ccccc1 (centres undefined) [Fenbuconazole] | 11.1 |
| CC1(C(=O)Nc2ccc(O)c(Cl)c2Cl)CCCCC1 [Fenhexamid] | 11.5 |
| COP(=S)(OC)Oc1ccc([N+](=O)[O-])c(C)c1 [Fenitrothion] | 10.5 |
| CCC(C)c1ccccc1OC(=O)NC (centres undefined) [Fenobucarb] | 9.78 |
| CCOC(=O)C(C)Oc1ccc(Oc2nc3ccc(Cl)cc3o2)cc1 (centres undefined) [Fenoxaprop-ethyl] | 12.7 |
| CC(Oc1ccc(Oc2nc3ccc(Cl)cc3o2)cc1)C(=O)O (centres undefined) [Fenoxaprop] | 11.6 |
| COP(=O)(OC)Oc1ccc(S(C)(=O)=O)c(C)c1 [Fenoxon sulfone] | 5.35 |
| COP(=O)(OC)Oc1ccc(S(C)=O)c(C)c1 (centres undefined) [Fenoxon sulfoxide] | 5.14 |
| CCOC(=O)NCCOc1ccc(Oc2ccccc2)cc1 [Fenoxycarb] | 12.4 |
| N#Cc1c[nH]cc1-c1cccc(Cl)c1Cl [Fenpiclonil] | 9.52 |
| CC1(C)C(C(=O)OC(C#N)c2cccc(Oc3ccccc3)c2)C1(C)C (centres undefined) [Fenpropathrin] | 13.7 |
| CC(Cc1ccc(C(C)(C)C)cc1)CN1CCCCC1 (centres undefined) [Fenpropidin] | 10 |
| CC(Cc1ccc(C(C)(C)C)cc1)CN1CC(C)OC(C)C1 (centres undefined) [Fenpropimorph] | 14.1 |
| Cc1nn(C)c(Oc2ccccc2)c1C=NOCc1ccc(C(=O)OC(C)(C)C)cc1 [Fenpyroximate] | 13.7 |
| COP(=O)(OC)Oc1ccc(SC)c(C)c1 [Fenthion oxon] | 9.48 |
| COP(=S)(OC)Oc1ccc(S(C)=O)c(C)c1 (centres undefined) [Fenthion sulfoxide] | 7.8 |
| COP(=S)(OC)Oc1ccc(SC)c(C)c1 [Fenthion] | 11.7 |
| N#Cc1nn(-c2c(Cl)cc(C(F)(F)F)cc2Cl)c(N)c1S(=O)C(F)(F)F (centres undefined) [Fipronil] | 11.3 |
| CC(C)OC(=O)C(C)N(C(=O)c1ccccc1)c1ccc(F)c(Cl)c1 (centres undefined) [Flamprop-isopropyl] | 11.7 |
| COC(=O)C(C)N(C(=O)c1ccccc1)c1ccc(F)c(Cl)c1 (centres undefined) [Flamprop-methyl] | 10.7 |
